Laboratory results reported in paper PMC4747383, “Design of a peptidic inhibitor that targets the dimer interface of a prototypic galectin” (Oncotarget, 2015).
“Also recorded” adds a separate entry of the source. No end group written: not given here.

What was measured:
recombinant hGal-7 [1] = assay: Disruption of hGal-7 homodimers, native gel electrophoresis/Western blot; format: biochemical, human; details: for disruption of hGal-7 homodimers (in words): 0.5 μM recombinant hGal-7, 20 mM potassium phosphate pH 7.1, 1 h at 4°C
Excerpt: (§1) To measure the ability of the peptides to disrupt the formation of hGal-7 dimers, we used mild denaturing native gel electrophoresis, a commonly used approach to visualize monomer-dimer equilibrium (Fig. 1A and Supplementary Fig. S1). […] This specificity at disrupting hGal-7 dimer formation is provided by distinct three-dimensional arrangements between otherwise very similar galectin homologues. Indeed, while all monomeric galectins reveal identical topologies, dimer formation in hGal-7 proceeds through a “back-to-back” topology of the monomers while other galectins, including hGal-1 and hGal-2, adopt a “side-by-side” structural arrangement (Fig. 1B). This structural organization provides additional means to specifically target and disrupt galectin function.
(§2) Incubation of the recombinant B. hGal-1 and C. hGal-2 with hGal-7(129–135) was performed in the same potassium phosphate buffer. The effect of hGal-7(129–135) on the monomeric and dimeric forms of hGal-7/hGal-1/hGal-2 was assessed by Western blotting in native conditions with respective antibodies. The hGal-1/hGal-2 films were overexposed. PACAP28–38 was the control peptide used in order to ensure the specificity of hGal-7(129–135). Recombinant hGal-7 (0.5 μM) was also incubated with increasing concentrations of hGal-7(129–135) in 0.1 mM D. lactose or E. LacNac solutions. Results are representative of three independent experiments.
Human Gal-7 cDNA was cloned into pET-22b(+) using NdeI and HindIII restriction enzymes. Human pET-Gal-1 vector was generously donated by Dr. S. Sato (McGill University, QC, Canada). The proteins were produced in E. coli BL21 (DE3) cells at 37°C. Isopropyl β-D-1-thiogalactopyranoside (IPTG) (1 mM) was added to the bacterial culture at OD600nm = 0.6–0.7 and then incubated for 4 h at 37°C to allow protein production. Bacterial pellets were resuspended in lysis buffer (0.7 mg/mL lysozyme, 10 mM Tris pH 8, 100 mM NaCl, 1 mM EDTA, 1 mM DTT and a protease inhibitor cocktail) and then incubated for 1 h at 37°C prior to centrifugation for 30 min at 15,000 × g (4°C). The supernatant was then filtered with 500 mL bottle top filter ([…]) (Corning, New York, NY, USA) and then ran through a lactose-agarose column (Sigma, St. Louis, MO, USA). The protein was eluted in 1 mL fractions with 150 mM lactose solution. Purified fractions were analyzed by SDS-PAGE. The hGal-7 was then concentrated and purified using Centrifugal filter units (Amicon Ultra-15, 10K) (EMD, Millipore, Etobicoke, ON) in 20 mM potassium phosphate at pH 7.1. All subsequent experiments with the recombinant proteins were performed in the same buffer solution unless mentioned otherwise. Brilliant Coomassie blue was purchased from BioRad (Bio-Rad Laboratories, Mississauga, ON, Canada). The recombinant protein hGal-2 was purchased from MyBiosource (San Diego, CA, USA). […]
gaI-7 (0.5 μM) was incubated with increasing concentrations of biotin-labeled hGaI-7129–135 in 20 mM potassium phosphate buffer (pH 7.1) for 60 min at 4°C beforeWestern blot analysis in low SDS-PAGE using an anti-gaI-7 antibody. B. Similar experiments were carried out using recombinant human B. gaI-1 and C. gaI-2. Results are representative of two independent experiments.
(also on this page, place not known: www.impactjournals.com/oncotarget/ Oncotarget, Materials 2015 Supplementary hGaI-7 129–135.)

recombinant hGal-1 = assay: Disruption of hGal-1 dimers, native gel electrophoresis/Western blot; format: biochemical, human; details: recombinant hGal-1, 20 mM potassium phosphate pH 7.1, films overexposed, three independent experiments
Excerpt: as §1
as §2, with “Recombinant hGal-7 (0.5 μM) was also incubated with increasing concentrations of hGal-7(129–135) in 0.1 mM D. lactose or E. LacNac solutions. Results are representative of three independent experiments.” left out
(§3) Human Gal-7 cDNA was cloned into pET-22b(+) using NdeI and HindIII restriction enzymes. […] Purified fractions were analyzed by SDS-PAGE. […]

recombinant hGal-7 [2] = assay: Solid phase fluorescent binding assay on hGal-7; design: species or system human; details: hGal-7 10 μg/ml coated; unlabeled peptide (1 mM) 60 min, then biotin-labeled peptide 120 min, room temperature; Streptavidin R-phycoerythrin fluorescence; three independent experiments
Excerpt: Results are representative of three independent experiments. Error bars represent standard deviation.

recombinant hGal-2 = assay: Disruption of hGal-2 dimers, native gel electrophoresis/Western blot; format: biochemical, human; details: recombinant hGal-2, 20 mM potassium phosphate pH 7.1, films overexposed, three independent experiments
Excerpt: as §1
as §2, with “Recombinant hGal-7 (0.5 μM) was also incubated with increasing concentrations of hGal-7(129–135) in 0.1 mM D. lactose or E. LacNac solutions. Results are representative of three independent experiments.” left out
as §3

[3] = 0.5 μM recombinant hGal-7, 20 mM potassium phosphate pH 7.1, pre-incubated 1 h at 4°C, native PAGE, Western blot, representative of three independent experiments

Substance | disruption of hGal-7 homodimers in presence of LacNac (recombinant hGal-7 [1]; 0.5 μM hGal-7, 0.1 mM LacNac, representative of three independent experiments) | disruption of hGal-7 homodimers in presence of lactose (recombinant hGal-7 [1]; 0.5 μM hGal-7, 0.1 mM lactose, representative of three independent experiments) | disruption of hGal-7 homodimers (in words) (recombinant hGal-7 [1]; native PAGE, Western blot) | lowest concentration giving a consistent decrease of hGal-7 homodimers (recombinant hGal-7 [1]; [3]) [µM] | saturation dose for decrease of hGal-7 homodimers (recombinant hGal-7 [1]; [3]) [µM] | disruption of hGal-1 homodimers (recombinant hGal-1) | binding to immobilized hGal-7 (recombinant hGal-7 [2]) | disruption of hGal-2 homodimers (recombinant hGal-2)
H-LDSVRIP-NH2 [hGal-7(129–135), peptide corresponding to hGal-7 segment between residues 129–135] | not inhibited by the presence of lactose or LacNac | not inhibited by the presence of lactose | Disruption of the hGal-7 dimer; also recorded: effective at relatively high concentrations | 10 | 100 | No such effect was observed | direct interaction; also recorded: bind hGal-7 in a concentration-dependent and specific manner | No such effect was observed
PACAP(28–38): an inactive fragment of the human Pituitary Adenylate Cyclase-Activating Polypeptide (PACAP) (GKRYKQRVKNK-NH2; ends and bridges not checked; UniProt P18509 159-169, looked up, fragment) |  |  | No such effect was observed |  |  |  |  | 
